How the values were obtained:
SHV-5 = biological target: T1, SHV-5 (Klebsiella pneumoniae, UniProt P0A3M1); test: β-lactamase enzyme inhibition assay, SHV-5 (cefotaxime substrate); assay type: biochemical
T1 construct: made in house; host or cells: E. coli BL21(DE3)
Method: (§1) For SHV-5, KPC-2, p99AmpC and OXA-4813-lactamases, E. coli BL21(DE3) bacterial cells carrying expression plasmids (expressed as native untagged proteins) for the individual β-lactamases were grown in 1L of Superbroth (Teknova Inc. Hollister, Calif.) supplemented with 100 μg/ml kanamycin selection and 1×5052 (0.5% glycerol, 0.05% glucose and 0.2% α-lactose) at 35° C. for 18-20 hours. Cells were harvested by centrifugation (4,000 ×g, 4° C., 20 min), re-suspended in 50 ml of 10 mM HEPES pH 7.5 (1/20 of the initial volume). The cells were lysed by sonication (5 pulses of 45 seconds) at 45 Won ice. The lysates were clarified by centrifugation at 10,000 ×g for 40 minutes at 4° C. Samples were diluted 5-fold in 50 mM sodium acetate pH 5.0, stored overnight at 4° C., after which they were centrifuged at 10,000 ×g for 30 minutes to clarify, and filtered through 0.45 μm filters. The samples were loaded onto a 5 ml Capto S sepharose cation exchange column (GE Healthcare) pre-equilibrated with 50 mM sodium acetate pH 5.0. The column was washed with 5 column volumes of 50 mM sodium acetate pH 5.0 to wash out unbound protein and a linear gradient of NaCl (0 to 500 mM) was used to elute the protein (over 16 CV) from the column. Fractions were assayed for β-lactamase activity using Centa (Calbiochem, Gibbstown, N.J.) or Nitrocefin (EMD Millipore chemicals, Darmstadt, Germany) as a reporter β-lactamase substrate for activity in the isolated fractions. Active fractions were pooled, concentrated and further purified by gel filtration chromatography on a Superdex 75 prep grade gel filtration column (GE Healthcare, Piscataway, N.J.) pre -equilibrated in 50 mM Hepes pH 7.5, 150 mM NaCl. Active fractions were pooled, concentrated, and quantitated by BCA protein determination (ThermoScientific, Rockford, Ill.), dialyzed into PBS and frozen at […] in 20% glycerol until use.
(§2) An equal volume of diluted enzyme stock was added, and the plates were incubated at 37° C. for 15 min. Nitrocefin was used as substrate for p99 AmpC, VIM-2 and OXA-48 and dispensed into each well at a final concentration of 100 μM. Absorbance at 486 nm was immediately monitored for 10 min using a Biotek Powerwave XS2 microplate spectrophotometer using the GEN5 software package (Biotek Instruments, Winooski Vt.). In an analogous fashion, imipenem was used as substrate for KPC-2 and Cefotaxime was used for SHV-5, while changes in absorbance upon hydrolysis of the β-lactam ring were monitored at 300 nm and 260 nm respectively in UV-transparent 96-well microtiter assay plates. Maximum rates of hydrolysis were compared to those in control wells (without inhibitors), and percentages of enzyme inhibition were calculated for each concentration of inhibitor. The concentration of inhibitor needed to reduce the initial rate of hydrolysis of substrate by 50% (IC50) was calculated as the residual activity of β-lactamase at 486 nm using GraFit version 7 kinetics software package (Erithacus Software, Surrey, UK).
(§3) Using the methodology described above, examples of the current invention were evaluated for their ability to inhibit β-lactamase enzymes from all four Ambler classifications (A through D). […] NT=Not tested.

KPC-2 = biological target: T2, KPC-2 (Klebsiella pneumoniae, UniProt Q9F663); test: β-lactamase enzyme inhibition assay, KPC-2 (imipenem substrate); assay type: biochemical
T2 construct: made in house; host or cells: E. coli BL21(DE3)
T2 sequence (Q9F663 25-293 limits assumed): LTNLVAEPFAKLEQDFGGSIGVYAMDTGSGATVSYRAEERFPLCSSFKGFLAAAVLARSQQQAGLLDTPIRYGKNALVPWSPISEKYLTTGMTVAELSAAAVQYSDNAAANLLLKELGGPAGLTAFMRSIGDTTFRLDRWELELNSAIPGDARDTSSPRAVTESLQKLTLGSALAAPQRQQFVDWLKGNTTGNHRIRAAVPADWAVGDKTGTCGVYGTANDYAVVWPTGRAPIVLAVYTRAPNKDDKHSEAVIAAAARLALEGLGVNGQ
Method: as §1, §2, §3

[1] = biological target: T3, VIM-2 metallo β-lactamase (Pseudomonas aeruginosa, UniProt Q9K2N0); test: β-lactamase enzyme inhibition assay, VIM-2 (nitrocefin substrate); assay type: biochemical; conditions: 15 min preincubation at 37° C.; nitrocefin 100 μM, 486 nm; read-out: IC50 VIM-2 (Class B)
T3 construct: made in house; host or cells: E. coli BL21(DE3)
Method: For VIM-2 metallo β-lactamase, the procedure was identical with the following exceptions, first the protein was not pH adjusted to pH 5 with 50 mM sodium acetate. Second, the chromatography step was changed to a 5 ml Q sepharose anion exchange column pre-equilibrated with 50 mM Hepes pH 7.5, and elution of the protein was achieved by a linear gradient of NaCl (0-600 mM). Finally, the VIM-2 purification required a second run (3rd step) on the Q sepharose anion exchange column to achieve acceptable purity (>90%).
as §2, §3

p99 AmpC = biological target: T4, p99 AmpC (Enterobacter cloacae, UniProt P05364); test: β-lactamase enzyme inhibition assay, p99 AmpC (nitrocefin substrate); assay type: biochemical
T4 construct: made in house; host or cells: E. coli BL21(DE3)
T4 sequence (P05364 21-381): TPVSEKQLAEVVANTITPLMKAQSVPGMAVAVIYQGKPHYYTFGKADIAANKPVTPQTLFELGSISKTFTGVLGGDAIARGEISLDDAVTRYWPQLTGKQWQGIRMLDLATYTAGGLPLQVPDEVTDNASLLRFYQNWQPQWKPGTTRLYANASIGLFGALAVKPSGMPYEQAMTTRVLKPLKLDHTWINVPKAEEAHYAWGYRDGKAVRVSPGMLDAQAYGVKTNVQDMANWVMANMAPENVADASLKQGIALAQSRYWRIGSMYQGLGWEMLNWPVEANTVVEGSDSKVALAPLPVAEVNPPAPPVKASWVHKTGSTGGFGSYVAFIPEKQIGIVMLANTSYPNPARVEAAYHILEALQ
Method: as §1, §2, §3

OXA-48 = biological target: T5, OXA-48 (Klebsiella pneumoniae, UniProt Q6XEC0); test: β-lactamase enzyme inhibition assay, OXA-48 (nitrocefin substrate); assay type: biochemical
T5 construct: made in house; host or cells: E. coli BL21(DE3)
T5 sequence (Q6XEC0 23-265 limits assumed): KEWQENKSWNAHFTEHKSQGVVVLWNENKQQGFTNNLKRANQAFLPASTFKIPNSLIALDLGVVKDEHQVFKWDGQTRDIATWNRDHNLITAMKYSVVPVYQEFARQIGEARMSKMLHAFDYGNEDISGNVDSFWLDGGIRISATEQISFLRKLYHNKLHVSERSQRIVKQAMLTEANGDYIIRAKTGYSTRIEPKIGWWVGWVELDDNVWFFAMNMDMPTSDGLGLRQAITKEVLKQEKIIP
Method: as §1, §2, §3

[2] = test system: E. cloacae expressing the Class C P99; test: Broth microdilution MIC assay, potentiation of ceftazidime; assay type: cell-based; conditions: for MIC (μg/mL) of exemplary compounds in presence of fixed β-lactams, E. cl. 144200 p99 AmpC: Fixed CAZ 4 μg/mL, CAMHB, 16-20 hours at 37° C.
Description: (§4) To determine the ability of test compounds to potentiate the inhibition of the growth of bacterial strains that produce beta-lactamase enzymes, classic cell based broth microdilution MIC assays were employed. Six bacteria strains producing beta-lactamase enzymes were used: E. coli expressing the Class A Extended Spectrum Beta-Lactamase (ESBL) CTX-M-15, E. cloacae expressing the Class C P99, K. pneumoniae expressing the Class A carbapenemase KPC-3, P.aeruginosa expressing the Class B carbapenemase VIM-2, K. pneumoniae expressing the class A carbapenemase KPC-2 and the class B carbapenemase VIM-4, and K. pneumoniae producing the Class D carbapenemase OXA-48. The assay was conducted in Cation Adjusted Mueller Hinton Broth (CAMHB, BD #212322, BD Diagnostic Systems, Sparks, Md.). Bacteria strains were grown for 3-5 hours in CAMHB broth. Test compounds were added to a microtiter plate in 2-fold serial dilutions in CAMHB in a final concentration range of 32 μg/mL to 0.015 μg/mL. An overlay of CAMHB containing a Beta-lactam was added to the compounds at a final static concentration of 4 μg/mL. […] In addition to the titration of test compounds the MICs of a panel of control beta-lactams is also tested to ensure the strains are behaving consistently from test to test. Once the test compound and antibiotics are added the plates can be inoculated according to CLSI broth microdilution method. After inoculation, the plates are incubated for 16-20 hours at 37° C., then the Minimal Inhibitory Concentration (MIC) of the test compound is determined visually.
(§5) Using the methodology described above, examples of the current invention were evaluated for their ability to inhibit the growth of β-lactamase-producing bacteria in the presence of a β-lactam antibiotic.
(§6) Representative results are shown in Table 3 where A represents an MIC of the fixed β-lactam antibiotic in the presence of >32 μg/mL of a β-lactamase inhibitor of exemplary compounds, B represents the MIC in the presence of between 8 and 32 μg/mL of a β-lactamase inhibitor of exemplary compounds, and C represents the MIC in the presence of ≤4 μg/mL of a β-lactamase inhibitor of exemplary compounds. NT=Not Tested.

[3] = test system: E. coli expressing the Class A Extended Spectrum Beta-Lactamase (ESBL) CTX-M-15; test: as above; assay type: cell-based; conditions: for MIC (μg/mL) of exemplary compounds in presence of fixed β-lactams, E. coli ESBL4 CTX-M-15: Fixed CAZ 4 μg/mL, CAMHB, 16-20 hours at 37° C.
Description: as §4, §5, §6

[4] = test system: K. pneumoniae expressing the Class A carbapenemase KPC-3; test: Broth microdilution MIC assay, potentiation of meropenem; assay type: cell-based; conditions: Fixed Mero 4 μg/mL; CAMHB, 16-20 hours at 37° C.
Description: as §4, §5

[5] = test system: K. pneumoniae producing the Class D carbapenemase OXA-48; test: as above; assay type: cell-based; conditions: Fixed Mero 4 μg/mL; CAMHB, 16-20 hours at 37° C.
Description: as §4, §5

[6] = test system: K. pneumoniae expressing the class A carbapenemase KPC-2 and the class B carbapenemase VIM-4; test: as above; assay type: cell-based; conditions: for MIC (μg/mL) of exemplary compounds in presence of fixed β-lactams, K.P. A-1797 KPC-2 VIM-4: Fixed Mero 4 μg/mL, CAMHB, 16-20 hours at 37° C.
Description: as §4, §5, §6

[7] = test system: P.aeruginosa expressing the Class B carbapenemase VIM-2; test: as above; assay type: cell-based; conditions: for MIC (μg/mL) of exemplary compounds in presence of fixed β-lactams, P. aerug. 2775 VIM-2: Fixed Mero 4 μg/mL, CAMHB, 16-20 hours at 37° C.
Description: as §4, §5, §6

T1 sequence (P0A3M1 22-286): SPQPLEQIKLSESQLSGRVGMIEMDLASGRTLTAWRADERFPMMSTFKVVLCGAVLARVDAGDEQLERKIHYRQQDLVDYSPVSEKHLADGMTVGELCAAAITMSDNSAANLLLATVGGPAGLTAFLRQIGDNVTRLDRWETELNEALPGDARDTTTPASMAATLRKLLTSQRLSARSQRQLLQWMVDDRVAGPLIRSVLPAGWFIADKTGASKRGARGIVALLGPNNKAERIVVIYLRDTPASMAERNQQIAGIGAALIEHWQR

Row | Compound | IC50 (SHV-5) [nM] | IC50 (KPC-2) [nM] | IC50 [1] [nM] | IC50 (p99 AmpC) [nM] | IC50 (OXA-48) [nM] | MIC (μg/mL) of exemplary compounds in presence of fixed β-lactams, E. cl. 144200 p99 AmpC [2] | MIC (μg/mL) of exemplary compounds in presence of fixed β-lactams, E. coli ESBL4 CTX-M-15 [3] | MIC (μg/mL) of exemplary compounds in presence of fixed β-lactams, K. P. 156319 KPC-3 [4] | MIC (μg/mL) of exemplary compounds in presence of fixed β-lactams, K. P. 11978 OXA-48 [5] | MIC (μg/mL) of exemplary compounds in presence of fixed β-lactams, K.P. A-1797 KPC-2 VIM-4 [6] | MIC (μg/mL) of exemplary compounds in presence of fixed β-lactams, P. aerug. 2775 VIM-2 [7] | MIC alone of partner antibiotic ([6]; antibiotic alone, K. pneumoniae expressing KPC-2 and VIM-4) [µg/mL] | MIC alone of partner antibiotic ([7]; antibiotic alone, P. aeruginosa expressing VIM-2) [µg/mL] | MIC alone of partner antibiotic ([2]; antibiotic alone, E. cloacae expressing Class C P99) [µg/mL] | MIC alone of partner antibiotic ([3]; antibiotic alone, E. coli expressing Ambler Class A ESBL CTX-M-15) [µg/mL]
1 | O=C(CCCC(F)(F)F)N[C@H]1Cc2cccc(C(=O)O)c2OB1O [Example 2, (R)-2-hydroxy-3-(5,5,5-trifluoropentanamido)-3,4-dihydro-2H-benzo[e][1,2]oxaborinine-8-carboxylic acid] | < 100 | < 100 | 1000 to 10000 | < 100 | 100 to 1000 | C (C represents the MIC in the presence of ≤4 μg/mL of a β-lactamase inhibitor) | C (C represents the MIC in the presence of ≤4 μg/mL of a β-lactamase inhibitor) | C (C represents the MIC in the presence of ≤4 μg/mL of a β-lactamase inhibitor) | C (C represents the MIC in the presence of ≤4 μg/mL of a β-lactamase inhibitor) | C (C represents the MIC in the presence of ≤4 μg/mL of a β-lactamase inhibitor) | B (B represents the MIC in the presence of between 8 and 32 μg/mL of a β-lactamase inhibitor) | – | – | – | –
2 | C[C@@H](O)[C@H]1C(=O)N2C(C(=O)O)=C(S[C@@H]3CN[C@H](C(=O)N(C)C)C3)[C@H](C)[C@H]12 [Meropenem, reference compound] | – | – | – | – | – | – | – | – | – | – | – | 64 | 16 | – | –
3 | CC(F)(F)CCC(=O)N[C@H]1Cc2cccc(C(=O)O)c2OB1O [Example 85, (R)-3-(4,4-Difluoro-pentanoylamino)-2-hydroxy-3,4-dihydro-2H -benzo[e][1,2]oxaborinine-8-carboxylic acid] | < 100 | < 100 | 1000 to 10000 | < 100 | 1000 to 10000 | C (C represents the MIC in the presence of ≤4 μg/mL of a β-lactamase inhibitor) | C (C represents the MIC in the presence of ≤4 μg/mL of a β-lactamase inhibitor) | C (C represents the MIC in the presence of ≤4 μg/mL of a β-lactamase inhibitor) | C (C represents the MIC in the presence of ≤4 μg/mL of a β-lactamase inhibitor) | B (B represents the MIC in the presence of between 8 and 32 μg/mL of a β-lactamase inhibitor) | C (C represents the MIC in the presence of ≤4 μg/mL of a β-lactamase inhibitor) | – | – | – | –
4 | CC(F)(F)CC(=O)N[C@H]1Cc2cccc(C(=O)O)c2OB1O [Example 3, (R)-3-(3,3-difluorobutanamido)-2-hydroxy-3,4-dihydro-2H-benzo [e][1,2]oxaborinine-8-carboxylic acid] | < 100 | 100 to 1000 | 1000 to 10000 | < 100 | 100 to 1000 | C (C represents the MIC in the presence of ≤4 μg/mL of a β-lactamase inhibitor) | C (C represents the MIC in the presence of ≤4 μg/mL of a β-lactamase inhibitor) | C (C represents the MIC in the presence of ≤4 μg/mL of a β-lactamase inhibitor) | C (C represents the MIC in the presence of ≤4 μg/mL of a β-lactamase inhibitor) | C (C represents the MIC in the presence of ≤4 μg/mL of a β-lactamase inhibitor) | C (C represents the MIC in the presence of ≤4 μg/mL of a β-lactamase inhibitor) | – | – | – | –
5 | CC(F)C(=O)N[C@H]1Cc2cccc(C(=O)O)c2OB1O (mixture of isomers) [Example 102, (3R)-3-(2-fluoropropanamido)-2-hydroxy-3,4-dihydro-2H -benzo[e][1,2]oxaborinine-8-carboxylic acid] | < 100 | < 100 | 1000 to 10000 | < 100 | 100 to 1000 | C (C represents the MIC in the presence of ≤4 μg/mL of a β-lactamase inhibitor) | C (C represents the MIC in the presence of ≤4 μg/mL of a β-lactamase inhibitor) | C (C represents the MIC in the presence of ≤4 μg/mL of a β-lactamase inhibitor) | C (C represents the MIC in the presence of ≤4 μg/mL of a β-lactamase inhibitor) | B (B represents the MIC in the presence of between 8 and 32 μg/mL of a β-lactamase inhibitor) | C (C represents the MIC in the presence of ≤4 μg/mL of a β-lactamase inhibitor) | – | – | – | –
6 | CC(C)(O/N=C(\C(=O)N[C@@H]1C(=O)N2C(C(=O)[O-])=C(C[n+]3ccccc3)CS[C@H]12)c1csc(N)n1)C(=O)O [Ceftazidime, reference compound] | – | – | – | – | – | – | – | – | – | – | – | – | – | 128 | > 128

Reference: patent publication US10464952B2, “Beta-lactamase inhibitors” (priority 2015, dated 2019)
